Consider 27 molecules from patent US20220380319A1 (Bial - R&D Investments, S.A., priority 2019, published 2022).

Converted amounts (≈) assume the structure as drawn.

The nature of data set [1]: Compound solubility in water.
Another data set concerns the target T1, acid ceramidase (Homo sapiens, UniProt Q13510).
T1 construct: Cell lysates overexpressing acid ceramidase were used as the enzyme source; expressed in transfected cells
T1 sequence (Q13510 22-395): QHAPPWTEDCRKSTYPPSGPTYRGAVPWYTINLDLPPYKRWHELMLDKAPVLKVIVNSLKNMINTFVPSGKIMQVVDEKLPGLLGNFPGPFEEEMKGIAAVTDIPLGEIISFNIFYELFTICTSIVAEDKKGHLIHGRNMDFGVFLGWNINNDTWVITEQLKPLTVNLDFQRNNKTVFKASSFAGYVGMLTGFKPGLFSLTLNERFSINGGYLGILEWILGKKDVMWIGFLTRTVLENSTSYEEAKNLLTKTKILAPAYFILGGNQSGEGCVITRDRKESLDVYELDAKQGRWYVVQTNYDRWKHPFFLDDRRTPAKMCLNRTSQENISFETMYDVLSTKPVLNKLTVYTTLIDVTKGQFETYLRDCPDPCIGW
The experiment in a line: Acid ceramidase inhibition, biochemical fluorescent assay with cell lysates overexpressing acid ceramidase, substrate Rbm14-12. To be noted: substrate Rbm14-12 6.3 μM. Put shortly: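 IC50 derived by four-parameter fitting of fluorescence (ex360 nm, em446 nm) produced after 1 hr in methanol/NaIO4/glycine stop buffer, pH 10.6. Reaction: 6.3 μM Rbm14-12, 1 hr RT, following 1 hr RT compound preincubation with 10 μg overexpressing-cell lysate protein in pH 4.5 NaAC/NaCl buffer.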

The mark [2] stands for this setting: pH 4.5, 1 hr preincubation at RT.

Consider `CN1CCN(c2cccc3c2ncn3C(=O)NCC#Cc2ccccc2F)CC1` [Example 338, N-(3-(2-Fluorophenyl)prop-2-yn-1-yl)-4-(4-methylpiperazin-1-yl)-1H-benzo[d]imidazole-1-carboxamide], for which the solubility in data set [1] was 18 µg/mL (≈ 46 µM). In addition, the half-maximal inhibitory concentration (IC50) on acid ceramidase (setting [2]) was under 200 nM.
On the same counts, the results for `COc1nc2c(N3CCOCC3)cccc2n1C(=O)NCCC(C)C` [Example 146, N-iso-Pentyl-2-methoxy-4-morpholino-1H-benzo[d]imidazole-1-carboxamide] are 17 µg/mL (≈ 49.1 µM) and over 1000 nM.
`COc1nc2cc(N3CCOCC3)ccc2n1C(=O)NCCCC1(C(F)(F)F)CC1` [Example 183b, 2-methoxy-5-morpholino-N-(3-(1-(trifluoromethyl)cyclopropyl)propyl)-1H-benzo[d]imidazole-1-carboxamide] came in with a solubility in data set [1] of 3 µg/mL (≈ 7.04 µM). The same molecule showed an IC50 against acid ceramidase (pH 4.5) of under 200 nM.
With `O=C(NCCc1ccccc1)n1cnc2ccc(-c3cncnc3)cc21` [Example 8b, N-phenethyl-6-(pyrimidin-5-yl)-1H-benzo[d]imidazole-1-carboxamide], in data set [1], the solubility worked out at 14.5 µg/mL (≈ 42.2 µM). The 50% inhibitory concentration (IC50) at acid ceramidase (setting [2]) was under 200 nM.
The matching figures for `N#Cc1cccc2c1ncn2C(=O)NCCCOc1ccccc1` [Example 131, 4-Cyano-N-(3-phenoxypropyl)-1H-benzo[d]imidazole-1-carboxamide]: 5 µg/mL (≈ 15.6 µM) and under 200 nM.
In the case of `CN1CC(N2CCN(c3cccc4c3ncn4C(=O)NCC#Cc3ccccc3)CC2)C1` [Example 333, 4-(4-(1-Methylazetidin-3-yl)piperazin-1-yl)-N-(3-phenylprop-2-yn-1-yl)-1H-benzo[d]imidazole-1-carboxamide], in data set [1], the concentration in solution (solubility) came to 26 µg/mL (≈ 60.7 µM). Also, at acid ceramidase (pH 4.5), the 50% inhibitory concentration (IC50) is under 200 nM.
On the same counts, the results for `COc1nc2c(N3CCN(C)CC3)cccc2n1C(=O)NCC#Cc1ccccc1` [Example 322, 2-Methoxy-4-(4-methylpiperazin-1-yl)-N-(3-phenylprop-2-yn-1-yl)-1H-benzo[d]imidazole-1-carboxamide] are 22 µg/mL (≈ 54.5 µM) and 200 to 1000 nM.
For `COc1nc2cc(N3CCOCC3)ccc2n1C(=O)NCC1CC1Cc1ccccc1` (stereo not drawn) [Example 231b, N-((2-benzylcyclopropyl)methyl)-2-methoxy-5-morpholino-1H-benzo[d]imidazole-1-carboxamide], the concentration in solution in data set [1] (solubility) came to 13 µg/mL (≈ 30.9 µM). This molecule showed a half-maximal inhibitory concentration (IC50) at acid ceramidase (pH 4.5) of under 200 nM.
Molecule `COc1nc2cc(-c3cncnc3)ccc2n1C(=O)NCCc1ccccc1` [Example 31b, 2-methoxy-N-phenethyl-5-(pyrimidin-5-yl)-1H-benzo[d]imidazole-1-carboxamide] displayed a solubility in data set [1] of 8.6 µg/mL (≈ 23 µM). Moreover, the concentration for half-maximal inhibition (IC50) against acid ceramidase (setting [2]) was under 200 nM.
`COc1nc2ccc(-c3cncnc3)cc2n1C(=O)NC1CCCCC1` [Example 111a, N-Cyclohexyl-2-methoxy-6-(pyrimidin-5-yl)-1H-benzo[d]imidazole-1-carboxamide] yielded a solubility in data set [1] of 6 µg/mL (≈ 17.1 µM). Moreover, the 50% inhibitory concentration (IC50) against acid ceramidase (setting [2]) is under 200 nM.
The matching figures for `CC(C)CCNC(=O)n1c(=O)n(C)c2cccnc21` [Example 104, N-iso-Pentyl-1-methyl-2-oxo-1,2-dihydro-3H-imidazo[4,5-b]pyridine-3-carboxamide]: 17 µg/mL (≈ 64.8 µM) and 200 to 1000 nM.
`Cn1c(=O)n(C(=O)NCCc2ccccc2)c2cccnc21` [Example 87, 3-Methyl-2-oxo-N-phenethyl-2,3-dihydro-1H-imidazo[4,5-b]pyridine-1-carboxamide] had a solubility in data set [1] of 14.7 µg/mL (≈ 49.6 µM). Besides, the IC50 against acid ceramidase (setting [2]) was over 1000 nM.
The matching figures for `CCCCNC(=O)n1cnc2ccc(OC)cc21` [Example 51b, N-butyl-6-methoxy-1H-benzo[d]imidazole-1-carboxamide]: 8.5 µg/mL (≈ 34.4 µM) and under 200 nM.
As to `CC1(N)CCN(c2cccc3c2ncn3C(=O)NCCCc2ccccc2)CC1` [Example 263, 4-(4-Amino-4-methylpiperidin-1-yl)-N-(3-phenylpropyl)-1H-benzo[d]imidazole-1-carboxamide], in data set [1], the concentration in solution (solubility) was 25 µg/mL (≈ 63.9 µM). For the same molecule, the IC50 at acid ceramidase (pH 4.5) is under 200 nM.
On the same counts, the results for `CCN1CCN(c2cccc3c2ncn3C(=O)NCCC(C)C)CC1` [Example 208] are 31 µg/mL (≈ 90.3 µM) and 200 to 1000 nM.
The molecule `CN1CC(N2CCN(c3cccc4c3ncn4C(=O)NCCC#Cc3ccccc3)CC2)C1` [Example 361] had a solubility in data set [1] of 24 µg/mL (≈ 54.2 µM). At acid ceramidase (setting [2]), this molecule registered an IC50 of under 200 nM.
The matching figures for `CCCCNC(=O)n1cnc2cc(C(F)(F)F)ccc21` [Example 49a, N-Butyl-5-(trifluoromethyl)-1H-benzo[d]imidazole-1-carboxamide]: 15.6 µg/mL (≈ 54.7 µM) and under 200 nM.
The matching figures for `CN1CCC(Oc2cccc3c2ncn3C(=O)NCCc2ccccc2)CC1` [Example 86, 4-((1-Methylpiperidin-4-yl)oxy)-N-phenethyl-1H-benzo[d]imidazole-1-carboxamide]: 26.5 µg/mL (≈ 70 µM) and under 200 nM.
In data set [1], `COc1nc2cc(F)c(N3CCN(C4CN(C)C4)CC3)cc2n1C(=O)NCC#CC(C)C` [Example 320b, 5-fluoro-2-methoxy-6-(4-(1-methylazetidin-3-yl)piperazin-1-yl)-N-(4-methylpent-2-yn-1-yl)-1H-benzo[d]imidazole-1-carboxamide] came in with a solubility of 42 µg/mL (≈ 94.9 µM). Moreover, the IC50 on acid ceramidase (pH 4.5) lay within 200 to 1000 nM.
`CCCCNC(=O)n1cnc2cc(OC)ccc21` [Example 51a, N-Butyl-5-methoxy-1H-benzo[d]imidazole-1-carboxamide] came in with a solubility in data set [1] of 7.2 µg/mL (≈ 29.1 µM). The IC50 against acid ceramidase (setting [2]) is under 200 nM.
For the molecule `N#CCCN1CCN(c2cccc3c2ncn3C(=O)NCCCc2ccccc2)CC1` [Example 278, 4-(4-(2-Cyanoethyl)piperazin-1-yl)-N-(3-phenylpropyl)-1H-benzo[d]imidazole-1-carboxamide], the solubility in data set [1] came to 18 µg/mL (≈ 43.2 µM). Further, at acid ceramidase (pH 4.5), the half-maximal inhibitory concentration (IC50) is under 200 nM.
The matching figures for `COc1nc2ccc(N3CCOCC3)cc2n1C(=O)NCCCc1ccc(F)nc1` [Example 232a, N-(3-(6-Fluoropyridin-3-yl)propyl)-2-methoxy-6-morpholino-1H-benzo[d]imidazole-1-carboxamide]: 25 µg/mL (≈ 60.5 µM) and over 1000 nM.
Molecule `O=C(NCCc1ccccc1)n1cnc2cc(-c3ncccn3)ccc21` [Example 9, N-Phenethyl-5-(pyrimidin-2-yl)-1H-benzo[d]imidazole-1-carboxamide] returned a solubility in data set [1] of 5.4 µg/mL (≈ 15.7 µM). Moreover, the IC50 against acid ceramidase (setting [2]) is under 200 nM.
The molecule `COc1cc(N2CCCCC2)c2ncn(C(=O)NCCCCC3CC3)c2c1` [Example 132, N-(4-Cyclopropylbutyl)-6-methoxy-4-(piperidin-1-yl)-1H-benzo[d]imidazole-1-carboxamide] gave a solubility in data set [1] of 0.2 µg/mL (≈ 0.54 µM). On acid ceramidase (setting [2]), the IC50 is under 200 nM.
Molecule `O=C(NCCc1ccccc1)n1cnc2ccccc21` [Example 1, N-Phenethyl-1H-benzo[d]imidazole-1-carboxamide] returned a solubility in data set [1] of 8 µg/mL (≈ 30.2 µM). Also, at acid ceramidase (setting [2]), the IC50 was under 200 nM.
Take `CN1CCN(c2cccc3c2ncn3C(=O)NCCCC2(C(F)(F)F)CC2)CC1` [Example 254, 4-(4-Methylpiperazin-1-yl)-N-(3-(1-(trifluoromethyl)cyclopropyl)propyl)-1H-benzo[d]imidazole-1-carboxamide]: the solubility in data set [1] came out at 20 µg/mL (≈ 48.8 µM). Also, the concentration for half-maximal inhibition (IC50) at acid ceramidase (pH 4.5) was under 200 nM.
`O=C(NCCOc1ccccc1)n1cnc2c(F)cccc21` [Example 73, 4-Fluoro-N-(2-phenoxyethyl)-1H-benzo[d]imidazole-1-carboxamide] gave a solubility in data set [1] of 2.7 µg/mL (≈ 9.02 µM). At acid ceramidase (setting [2]), this molecule yielded an IC50 of under 200 nM.

As a reminder, the solubility is the dissolved amount per volume that the medium holds. For orientation: IC50 means the point on the concentration scale where inhibition reaches its midpoint. Higher therefore signals weaker potency.
